Patent publication US20160331783A1, “BISAMIDE COMPOUNDS AS ALLOSTERIC EFFECTORS FOR REDUCING THE OXYGEN-BINDING AFFINITY OF HEMOGLOBIN” (THE GENERAL HOSPITAL CORPORATION, priority 2014, published 2016)
Blank lines part the entries; values can stand above or below the molecule they belong to. Non-standard residues stand in square brackets, D forms with d. Residues, ends and D or L forms follow the SMILES beside them. dNMeBip = CN[C@H](Cc1ccc(-c2ccccc2)cc1)C(=O)O

How the values were obtained:
[1] = target: T1, purified human hemoglobin (Homo sapiens, UniProt P68871); test: Oxygen dissociation curve (ODC) of purified hemoglobin, Hemox analyzer, P50; type: biochemical; details: for P50 with purified hemoglobin: hemoglobin 20 μM, tested compound 120 μM, purified hemoglobin alone 17 Torr
T1 construct: For experiments with purified hemoglobin, hemoglobin (20 μM as tetramer) was dissolved in DPBS
Protocol: (§1) The ODC of hemoglobin was measured with a Hemox analyzer (TCS Scientific Corporation) at 37° C. For experiments with purified hemoglobin, hemoglobin (20 μM as tetramer) was dissolved in DPBS and antifoam (0.2 vol %, Catalog No. AFA-25, TCS Scientific Corporation) was added to prevent foaming of the sample. Compounds were prepared in DMSO stock solutions then added to hemoglobin. The final concentration of DMSO was adjusted to 5 vol %. For experiments with RBCs, blood was drawn from volunteers into EDTA tubes. The blood was centrifuged for 15 min at 3,000 rpm at 4° C. The supernatant was discarded, and RBCs were washed three times with DPBS, pH 7.4 by dilution to 50% hematocrit. The washed RBCs were then diluted with Hemox solution (mixture of N-[Tris(hydroxymethyl)methyl]-2-aminoethanesulfonic acid (TES, 30 mM), sodium chloride (135 mM), and potassium chloride (5 mM) in water (pH 7.4), TCS Scientific Corporation), and mixed with the test compound stock solutions. When known allosteric effectors NEM (400 μM), 5HMF (2 mM) or formamidine disulfide (400 μM) were mixed with RBCs (20 μM as hemoglobin tetramer) for 1 h at 37° C., P50 was reduced to 8 Torr, 9 Torr, and 9 Torr respectively, which correlated with previous reports (see Garel et al., European Journal of Biochemistry, 1982, 123, 513-519). Data was analyzed by two-tailed, unpaired Student's t test using Microsoft Excel 2007.
A saturating effect on P50 was first determined by adding an increasing concentration of 2,3-DPG and IHP. No increase of P50 of hemoglobin was observed after an addition of a 30-fold molar excess of 2,3-DPG or IHP to hemoglobin. Hemoglobin (20 μM as tetramer) was pre-incubated with either 2,3-DPG (600 μM) or IHP (600 μM) followed by addition of Compound 1 (0, 50, 100, 150 and 200 μM) to the hemoglobin.

[2] = target: T2, hemoglobin (Homo sapiens, UniProt P68871); test: Small molecule microarray (SMM) binding to hemoglobin; details: hemoglobin 1 μg/mL, antibody detection
T2 construct: incubated in a TBS-T solution containing purified hemoglobin (1 μg/mL)
Protocol: Test compounds were affixed to SMM slides with isocyanate-functionalized surfaces as described in Casalena et al., Methods in molecular biology, 2012, 803, 249-263. Pre-incubating the SMMs with albumin blocked non-specific binding of the compounds to SMMs. Compounds binding to hemoglobin were detected on the SMMs using a fluorescent dye-conjugated antibodies specific for hemoglobin. The assay was validated by confirming the binding of hemoglobin to 2,3-DPG affixed on SMMs.
Each slide contained 48 “blocks”, and each block contained approximately 100 unique surface-immobilized small molecules. Compounds were printed in duplicate, and each slide was screened in duplicate, resulting in four replicates for every test compound. SMM slides were blocked by incubating them in a TBS-T solution (Tween 20, 0.01 vol %) containing bovine serum albumin (BSA, 0.1 wt %) for 30 min. […]
Using SMM Hits-Analyzer software (Broad Institute), the measured fluorescent signal of the foreground of a given spot (F) was divided by its local background (B) resulting in a calculated F/B ratio for each spot on which the test compounds were affixed. The F/B ratios were fitted to a Cauchy distribution plot for every block on the slide, and “positive” hits were determined using a p-value threshold of 7%. […]

[3] = test system: RBCs; test: Hemolysis of RBCs / blood on incubation with compound; type: cell-based, human; design: key to Hemolysis of whole blood (P50 of whole blood column): c: does not hemolyze; details: for Hemolysis of diluted human blood: diluted human blood 50 μM, compound/Hb tetramer 30/1 mol/mol (1.5 mM), FIG. 9; for Hemolysis of whole blood (P50 of whole blood column): hemoglobin 20 μM, tested compound 120 μM
[4] = test system: human red blood cells (RBCs) / whole blood; test: Oxygen dissociation curve (ODC) of RBCs / whole blood, Hemox analyzer, P50; type: cell-based; details: for P50 of RBCs: RBCs 20 μM as hemoglobin tetramer, 1 h at 37° C.; for P50 of whole blood: hemoglobin 20 μM, tested compound 120 μM, whole blood alone 26 Torr
Protocol: as §1

[5] = target: T2, hemoglobin; test: Hemoglobin oxygen-binding assay (oxyHb % by spectrophotometry at controlled FO2); type: biochemical; details: allosteric effector to hemoglobin tetramer 6 to 1 (mol/mol)
Protocol: Test compounds (0.75 μL, 10 mM in DMSO) were added to the central area of two 384 deep well plates forming compound plates. DPBS was used as the solvent for myo-inositol hexaphosphate (IHP) and N-ethylmaleimide (NEM) (10 mM). To prevent oxidation of hemoglobin during the experiment, glucose-6-phosphate (0.4 mg/mL), glucose-6-phosphate dehydrogenase (1.0 U/mL), nicotinamide adenine dinucleotide phosphate (NADP, 0.05 mg/mL), ferredoxin (0.01 mg/mL), ferredoxin-NADP reductase (0.01 U/mL) and catalase (2×10^3 U/mL) were added to hemoglobin to produce the Hayashi reducing system, which is described in detail in Hayashi et al., Biochemica et Biophysica Acta, 1973, 310, 309-316. […]
The alteration of hemoglobin's oxygen-binding affinity by the test compounds binding to hemoglobin was evaluated in an environment where the fractional oxygen pressure (FO2) could be precisely measured and controlled. […] To confirm the allosteric effect of the test compounds, ODC of hemoglobin was measured in the presence and absence of each compound. […]
The ability of small molecules to alter the oxygen affinity of hemoglobin was determined by measuring the fraction of oxygenated hemoglobin (oxyHb %) and oxidized hemoglobin (metHb %) using spectrophotometry under three (high, medium, and low oxyHb saturation) conditions. […]

T1 sequence (P68871 2-147 limits assumed): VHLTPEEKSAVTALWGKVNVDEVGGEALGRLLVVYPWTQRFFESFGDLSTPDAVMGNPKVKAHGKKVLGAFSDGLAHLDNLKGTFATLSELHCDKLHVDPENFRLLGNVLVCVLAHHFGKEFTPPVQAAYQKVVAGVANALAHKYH
T1 sequence (P69905 2-142 partner limits assumed): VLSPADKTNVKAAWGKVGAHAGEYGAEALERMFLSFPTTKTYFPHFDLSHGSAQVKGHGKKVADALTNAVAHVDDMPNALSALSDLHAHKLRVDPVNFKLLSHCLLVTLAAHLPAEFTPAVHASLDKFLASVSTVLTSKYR
T2 sequence (P68871 2-147 limits assumed): as the sequence (P68871 2-147 limits assumed) above
T2 sequence (P69905 2-142 partner limits assumed): as the sequence (P69905 2-142 partner limits assumed) above

- P50 with purified hemoglobin [1]: 18 Torr
SMILES: CC(=O)N(C)[C@@H](Cc1ccccc1)C(=O)N[C@H](Cc1c[nH]c2ccccc12)C(=O)O (stereo in doubt) [Compound 5, (R)-3-(1H-indol-3-yl)-2-((S)-2-(N-methylacetamido)-3-phenylpropanamido)propanoic acid]

- P50 of hemoglobin ([1]; hemoglobin 20 μM tetramer, compound 200 μM, DPBS pH 7.4, 5 vol % DMSO, 37° C., hemoglobin alone 17 Torr): 19±0.1 Torr
- P50 of hemoglobin with 2,3-DPG ([1]; hemoglobin 20 μM, 2,3-DPG 600 μM (pre-saturated), no Compound 1): 23±0.7 Torr
- Binding of hemoglobin to compound affixed on SMMs [2]: binding
SMILES: O=C(O)C(COP(=O)(O)O)OP(=O)(O)O (stereo not drawn) [2,3-DPG, 2,3-diphosphoglycerate, reference compound]

SMILES: Cc1cc(C)cc(C(=O)N(C)[C@H](Cc2ccccc2)C(=O)N[C@@H](Cc2c[nH]c3ccccc23)C(=O)O)c1 [Compound 2, (S)-3-(1H-indol-3-yl)-2-((R)-3-phenyl-2-(N,3,5-trimethylbenzamido)propanamido)propanoic acid]
- Hemolysis of diluted human blood [3]: without hemolysis
- Increase of P50 of hemoglobin, dose dependence ([1]; FIG. 3, FIG. 6-7): concentration-dependent
- P50 with purified hemoglobin [1]: 20 Torr
- Oxygen affinity of red blood cells (RBCs) ([4]; human blood, FIG. 9): increased

- P50 with purified hemoglobin [1]: 20 Torr
SMILES: CC(=O)N(C)[C@H](Cc1ccc(-c2ccccc2)cc1)C(=O)N[C@@H](Cc1c[nH]c2ccccc12)C(=O)O [Compound 4, (S)-2-((R)-3-([1,1′-biphenyl]-4-yl)-2-(N-methylacetamido)propanamido)-3-(1H-indol-3-yl)propanoic acid] (Ac-[dNMeBip]-Trp-OH)

SMILES: O=Cc1ccc(CO)o1 [Compound 5HMF, reference compound]
- P50 of RBCs ([4]; allosteric effector 2 mM): 9 Torr

- P50 with purified hemoglobin [1]: 48 Torr
SMILES: Cc1cc(C)cc(C(=O)NC(Cc2ccc(-c3ccccc3)cc2)C(=O)NCC(=O)O)c1 (stereo not drawn) [Compound 8, 2-(3-([1,1′-biphenyl]-4-yl)-2-(3,5-dimethylbenzamido)propanamido)acetic acid]
- Hemolysis of whole blood (P50 of whole blood column) [3]: c
- P50 of whole blood [4]: 32 Torr

- P50 with purified hemoglobin [1]: 28 Torr
SMILES: Cc1cc(C)cc(C(=O)N(C)C(Cc2ccc(-c3ccccc3)cc2)C(=O)NCC(=O)O)c1 (stereo not drawn) [Compound 9, 2-(3-([1,1′-biphenyl]-4-yl)-2-(N,3,5-trimethylbenzamido)propanamido)acetic acid]
- Hemolysis of whole blood (P50 of whole blood column) [3]: c
- P50 of whole blood [4]: 33 Torr

- P50 with purified hemoglobin [1]: 23 Torr
SMILES: Cc1cc(C)cc(C(=O)N(C)C(Cc2ccc(-c3ccccc3)cc2)C(=O)NC(C)(C)C(=O)O)c1 (stereo not drawn) [Compound 10, 2-(3-([1,1′-biphenyl]-4-yl)-2-(N,3,5-trimethylbenzamido)propanamido)-2-methylpropanoic acid]
- Hemolysis of whole blood (P50 of whole blood column) [3]: c
- P50 of whole blood [4]: 31 Torr

- Change of oxyHb % [5]: decrease
SMILES: O=P(O)(O)O[C@H]1[C@H](OP(=O)(O)O)[C@@H](OP(=O)(O)O)[C@H](OP(=O)(O)O)[C@@H](OP(=O)(O)O)[C@H]1OP(=O)(O)O [IHP, myo-inositol hexaphosphate]

SMILES: CCN1C(=O)C=CC1=O [NEM, N-ethylmaleimide, reference compound]
- Change of oxyHb % [5]: increase
- P50 of RBCs ([4]; allosteric effector 400 μM): 8 Torr

SMILES: Cc1cc(C)cc(NC(=O)Cc2ccc(OC(C)(C)C(=O)O)cc2)c1 [RSR-13, reference compound]
- Hemolysis of diluted human blood [3]: hemolysis

SMILES: N=C(N)SSC(=N)N [formamidine disulfide, reference compound]
- P50 of RBCs ([4]; allosteric effector 400 μM): 9 Torr
